Test results: ChEMBL document CHEMBL1201862, “PubChem BioAssay data set” (2004)
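Cells were grown in 96-well plates and exposed to each compound for 48 hours at five concentrations; endpoints were interpolated linearly between bracketing concentrations, or set to the highest concentration if not reached. Abbreviation: GI50, concentration required for 50% inhibition of growth.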 Active and inactive are the calls of the source. No stated cut-off is given here; in the data, active = GI50 up to about 1.1 µM and inactive = higher.

Key:
Experiment in all cases: growth of human tumour cells (NCI), 48 h
[1] = tested on: PC-3
[2] = tested on: NCI-H460
[3] = tested on: MCF7
[4] = tested on: TK-10
[5] = tested on: HT-29
[6] = tested on: HCT-116
[7] = tested on: A549
[8] = tested on: SF-295
[9] = tested on: CCRF-CEM
[10] = tested on: ACHN
[11] = tested on: UACC-62
[12] = tested on: HL-60
[13] = tested on: OVCAR-4
[14] = tested on: OVCAR-3
[15] = tested on: Hs-578T
[16] = tested on: UO-31
[17] = tested on: UACC-257
[18] = tested on: SK-MEL-5
[19] = tested on: COLO 205
[20] = tested on: SF-268
[21] = tested on: RXF 393
[22] = tested on: M14
[23] = tested on: IGROV-1
[24] = tested on: 786-0
[25] = tested on: A498
[26] = tested on: K562
[27] = tested on: SK-MEL-2
[28] = tested on: SK-OV-3
[29] = tested on: NCI-H522
[30] = tested on: NCI/ADR-RES
[31] = tested on: HCT-15
[32] = tested on: HOP-62
[33] = tested on: SW-620
[34] = tested on: EKVX
[35] = tested on: Malme-3M
[36] = tested on: KM12
[37] = tested on: SR
[38] = tested on: SK-MEL-28
[39] = tested on: MOLT-4
[40] = tested on: T47D
[41] = tested on: SNB-19
[42] = tested on: HOP-92
[43] = tested on: CAKI-1
[44] = tested on: MDA-MB-231
[45] = tested on: MDA-N
[46] = tested on: BT-549
[47] = tested on: SF-539
[48] = tested on: DU-145
[49] = tested on: RPMI-8226
[50] = tested on: LOX IMVI
[51] = tested on: MDA-MB-435
[52] = tested on: NCI-H23
[53] = tested on: OVCAR-5
[54] = tested on: SN12C
[55] = tested on: NCI-H226
[56] = tested on: U-251
[57] = tested on: OVCAR-8
[58] = tested on: HCC 2998
[59] = tested on: SNB-75

CC(=O)Nc1cc(CN2CCCCC2)c(O)c2ncccc12
GI50 [1]: 21.6 µM (inactive)
GI50 [2]: 11.7 µM (inactive)
GI50 [3]: 24.7 µM (inactive)
GI50 [4]: 29 µM (inactive)
GI50 [5]: 44.5 µM (inactive)
GI50 [6]: 20.9 µM (inactive)
GI50 [7]: 32.9 µM (inactive)
GI50 [8]: 25.4 µM (inactive)
GI50 [9]: 41.5 µM (inactive)
GI50 [10]: 17.8 µM (inactive)
GI50 [11]: 19.6 µM (inactive)
GI50 [12]: 14.5 µM (inactive)
GI50 [13]: 35.2 µM (inactive)
GI50 [14]: 25.8 µM (inactive)
GI50 [15]: 67.3 µM (inactive)
GI50 [16]: 7.35 µM (inactive)
GI50 [17]: 24.7 µM (inactive)
GI50 [18]: 24.3 µM (inactive)
GI50 [19]: 49.7 µM (inactive)
GI50 [20]: 23.7 µM (inactive)
GI50 [21]: 4.29 µM (inactive)
GI50 [22]: 15.4 µM (inactive)
GI50 [23]: 28.4 µM (inactive)
GI50 [24]: 8.04 µM (inactive)
GI50 [25]: 65.9 µM (inactive)
GI50 [26]: 21.3 µM (inactive)
GI50 [27]: 4.13 µM (inactive)
GI50 [28]: 36.5 µM (inactive)
GI50 [29]: 37.3 µM (inactive)
GI50 [30]: 16.2 µM (inactive)
GI50 [31]: 6.01 µM
GI50 [32]: 27.2 µM (inactive)
GI50 [33]: 39.7 µM (inactive)
GI50 [34]: 30.4 µM (inactive)
GI50 [35]: 22.9 µM (inactive)
GI50 [36]: 23.9 µM (inactive)
GI50 [37]: 8.75 µM (inactive)
GI50 [38]: 27.3 µM (inactive)
GI50 [39]: 10.1 µM (inactive)
GI50 [40]: 11.8 µM (inactive)
GI50 [41]: 39.7 µM (inactive)
GI50 [42]: 49.5 µM (inactive)
GI50 [43]: 16.6 µM (inactive)
GI50 [44]: 15.8 µM (inactive)
GI50 [45]: 42 µM (inactive)
GI50 [46]: 77.4 µM (inactive)
GI50 [47]: 58.5 µM (inactive)
GI50 [48]: 6.75 µM (inactive)
GI50 [49]: 12.1 µM (inactive)
GI50 [50]: 20.2 µM (inactive)
GI50 [51]: 31.4 µM (inactive)
GI50 [52]: 40.7 µM (inactive)
GI50 [53]: 34.8 µM (inactive)
GI50 [54]: 26 µM (inactive)
GI50 [55]: 31.7 µM (inactive)
GI50 [56]: 17.1 µM (inactive)
GI50 [57]: 29.6 µM (inactive)

COc1ccc(/N=C2\C(=N/c3ccc(OC)cc3)N(S(=O)(=O)c3ccccc3)C(=S)N2c2ccc(OC)cc2)cc1
GI50 [1]: > 100 µM (inactive)
GI50 [3]: > 100 µM (inactive)
GI50 [4]: > 100 µM (inactive)
GI50 [6]: > 100 µM (inactive)
GI50 [7]: > 100 µM (inactive)
GI50 [8]: > 100 µM (inactive)
GI50 [10]: > 100 µM (inactive)
GI50 [11]: > 100 µM (inactive)
GI50 [58]: > 100 µM (inactive)
GI50 [14]: > 100 µM (inactive)
GI50 [15]: 89.1 µM (inactive)
GI50 [16]: > 100 µM (inactive)
GI50 [18]: 86.5 µM (inactive)
GI50 [19]: > 100 µM (inactive)
GI50 [20]: > 100 µM (inactive)
GI50 [21]: 46.2 µM (inactive)
GI50 [22]: 25.1 µM (inactive)
GI50 [23]: > 100 µM (inactive)
GI50 [24]: > 100 µM (inactive)
GI50 [26]: > 100 µM (inactive)
GI50 [27]: > 100 µM (inactive)
GI50 [28]: > 100 µM (inactive)
GI50 [29]: > 100 µM (inactive)
GI50 [30]: > 100 µM (inactive)
GI50 [31]: > 100 µM
GI50 [32]: > 100 µM (inactive)
GI50 [33]: > 100 µM (inactive)
GI50 [34]: > 100 µM (inactive)
GI50 [36]: > 100 µM (inactive)
GI50 [37]: > 100 µM (inactive)
GI50 [38]: > 100 µM (inactive)
GI50 [59]: 4.88 µM (inactive)
GI50 [39]: > 100 µM (inactive)
GI50 [40]: > 100 µM (inactive)
GI50 [41]: > 100 µM (inactive)
GI50 [42]: > 100 µM (inactive)
GI50 [43]: > 100 µM (inactive)
GI50 [44]: 27.2 µM (inactive)
GI50 [45]: > 100 µM (inactive)
GI50 [46]: > 100 µM (inactive)
GI50 [47]: > 100 µM (inactive)
GI50 [48]: > 100 µM (inactive)
GI50 [49]: > 100 µM (inactive)
GI50 [51]: > 100 µM (inactive)
GI50 [52]: > 100 µM (inactive)
GI50 [53]: > 100 µM (inactive)
GI50 [54]: > 100 µM (inactive)
GI50 [55]: > 100 µM (inactive)
GI50 [56]: > 100 µM (inactive)
GI50 [57]: > 100 µM (inactive)

COc1cc(/C=C/C=C2\CCC/C(=C\C=C\c3ccc(O)c(OC)c3)C2=O)ccc1O
GI50 [1]: 6.58 µM (inactive)
GI50 [2]: 13.8 µM (inactive)
GI50 [3]: 5.24 µM (inactive)
GI50 [4]: 8.34 µM (inactive)
GI50 [5]: 6.04 µM (inactive)
GI50 [6]: 10.5 µM (inactive)
GI50 [7]: 4.85 µM (inactive)
GI50 [8]: 4.74 µM (inactive)
GI50 [9]: 0.991 µM (active)
GI50 [10]: 4.08 µM (inactive)
GI50 [11]: 7.55 µM (inactive)
GI50 [58]: 13.2 µM (inactive)
GI50 [12]: 7.13 µM (inactive)
GI50 [13]: 6.27 µM (inactive)
GI50 [14]: 9.12 µM (inactive)
GI50 [15]: 19.5 µM (inactive)
GI50 [16]: 12 µM (inactive)
GI50 [17]: 12.1 µM (inactive)
GI50 [18]: 10.3 µM (inactive)
GI50 [19]: 18.6 µM (inactive)
GI50 [20]: 5.53 µM (inactive)
GI50 [21]: 10.8 µM (inactive)
GI50 [22]: 18.2 µM (inactive)
GI50 [23]: 6.7 µM (inactive)
GI50 [24]: 10 µM (inactive)
GI50 [26]: 3.06 µM (inactive)
GI50 [27]: 21.2 µM (inactive)
GI50 [28]: 5.81 µM (inactive)
GI50 [29]: 0.895 µM (active)
GI50 [30]: 12.2 µM (inactive)
GI50 [31]: 13.6 µM
GI50 [32]: 17.3 µM (inactive)
GI50 [33]: 6.84 µM (inactive)
GI50 [34]: 7.36 µM (inactive)
GI50 [35]: 10.6 µM (inactive)
GI50 [36]: 24.7 µM (inactive)
GI50 [37]: 1.69 µM (inactive)
GI50 [38]: 12.6 µM (inactive)
GI50 [59]: 26.7 µM (inactive)
GI50 [39]: 1.01 µM (active)
GI50 [40]: 8.32 µM (inactive)
GI50 [41]: 31.7 µM (inactive)
GI50 [42]: 12 µM (inactive)
GI50 [43]: 7.23 µM (inactive)
GI50 [44]: 39.1 µM (inactive)
GI50 [45]: 3.91 µM (inactive)
GI50 [46]: 17.2 µM (inactive)
GI50 [47]: 17.5 µM (inactive)
GI50 [48]: 14.7 µM (inactive)
GI50 [49]: 5.4 µM (inactive)
GI50 [50]: 7.91 µM (inactive)
GI50 [51]: 9.57 µM (inactive)
GI50 [52]: 11.7 µM (inactive)
GI50 [53]: 22 µM (inactive)
GI50 [54]: 17.3 µM (inactive)
GI50 [56]: 17.7 µM (inactive)
GI50 [57]: 12.6 µM (inactive)
